Measured values taken from ChEMBL document CHEMBL1139124, “Oxazolidinones as novel human CCR8 antagonists” (Bioorg Med Chem Lett, 2007).
Activity calls are given as the source filed them. No cut-off for these calls is given here.

What was measured:
[1] = target: C-C chemokine receptor type 8 (Homo sapiens, UniProt P51685); assay: Antagonist activity at human recombinant CCR8 expressed in RBL cells assessed as inhibition of I-309-induced intracellular calcium mobilization by FLIPR assay; format: functional, cell-based
Liver microsomes [2] = assay: Intrinsic clearance in human liver microsome; format: ADME
Liver microsomes [3] = assay: Intrinsic clearance in rat liver microsome; format: ADME
[4] = Volume of distribution at steady state in mouse at 1 mg/kg, iv or 2 mg/kg, po; format: ADME, organism-based; settings: in vivo, read-out: Vdss
[5] = Oral bioavailability in mouse at 2 mg/kg; format: ADME, organism-based; settings: in vivo
[6] = Clearance in mouse blood at 1 mg/kg, iv or 2 mg/kg, po; format: ADME, organism-based
[7] = Half life in mouse at 1 mg/kg, iv or 2 mg/kg, po; format: ADME, organism-based; settings: in vivo
Homo sapiens = species: Homo sapiens; assay: Selectivity for hERG over CCR8
[8] = target: T1, C-C chemokine receptor type 8 (Mus musculus) (UniProt P56484); assay: Antagonist activity at mouse CCR8 by FLIPR assay; format: functional
T1 sequence (whole entry): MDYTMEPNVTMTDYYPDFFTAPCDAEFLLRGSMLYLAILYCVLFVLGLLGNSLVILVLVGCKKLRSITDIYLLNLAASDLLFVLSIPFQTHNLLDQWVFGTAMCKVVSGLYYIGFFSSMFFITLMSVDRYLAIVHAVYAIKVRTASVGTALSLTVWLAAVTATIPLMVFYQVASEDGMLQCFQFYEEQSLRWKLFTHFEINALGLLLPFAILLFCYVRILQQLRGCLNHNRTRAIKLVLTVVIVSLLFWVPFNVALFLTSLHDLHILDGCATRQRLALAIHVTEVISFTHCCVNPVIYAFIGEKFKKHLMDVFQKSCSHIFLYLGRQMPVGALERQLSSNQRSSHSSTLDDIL

Rattus norvegicus = species: Rattus norvegicus; assay: Antagonist activity at rat CCR8 by FLIPR assay; format: functional
Cavia porcellus = species: Cavia porcellus; assay: Antagonist activity at guinea pig CCR8 by FLIPR assay; format: functional
[9] = target: Voltage-gated inwardly rectifying potassium channel KCNH2 (Homo sapiens, UniProt Q12809); assay: Inhibition of hERG; format: toxicity
Sequence of Voltage-gated inwardly rectifying potassium channel KCNH2 (Q12809 whole entry): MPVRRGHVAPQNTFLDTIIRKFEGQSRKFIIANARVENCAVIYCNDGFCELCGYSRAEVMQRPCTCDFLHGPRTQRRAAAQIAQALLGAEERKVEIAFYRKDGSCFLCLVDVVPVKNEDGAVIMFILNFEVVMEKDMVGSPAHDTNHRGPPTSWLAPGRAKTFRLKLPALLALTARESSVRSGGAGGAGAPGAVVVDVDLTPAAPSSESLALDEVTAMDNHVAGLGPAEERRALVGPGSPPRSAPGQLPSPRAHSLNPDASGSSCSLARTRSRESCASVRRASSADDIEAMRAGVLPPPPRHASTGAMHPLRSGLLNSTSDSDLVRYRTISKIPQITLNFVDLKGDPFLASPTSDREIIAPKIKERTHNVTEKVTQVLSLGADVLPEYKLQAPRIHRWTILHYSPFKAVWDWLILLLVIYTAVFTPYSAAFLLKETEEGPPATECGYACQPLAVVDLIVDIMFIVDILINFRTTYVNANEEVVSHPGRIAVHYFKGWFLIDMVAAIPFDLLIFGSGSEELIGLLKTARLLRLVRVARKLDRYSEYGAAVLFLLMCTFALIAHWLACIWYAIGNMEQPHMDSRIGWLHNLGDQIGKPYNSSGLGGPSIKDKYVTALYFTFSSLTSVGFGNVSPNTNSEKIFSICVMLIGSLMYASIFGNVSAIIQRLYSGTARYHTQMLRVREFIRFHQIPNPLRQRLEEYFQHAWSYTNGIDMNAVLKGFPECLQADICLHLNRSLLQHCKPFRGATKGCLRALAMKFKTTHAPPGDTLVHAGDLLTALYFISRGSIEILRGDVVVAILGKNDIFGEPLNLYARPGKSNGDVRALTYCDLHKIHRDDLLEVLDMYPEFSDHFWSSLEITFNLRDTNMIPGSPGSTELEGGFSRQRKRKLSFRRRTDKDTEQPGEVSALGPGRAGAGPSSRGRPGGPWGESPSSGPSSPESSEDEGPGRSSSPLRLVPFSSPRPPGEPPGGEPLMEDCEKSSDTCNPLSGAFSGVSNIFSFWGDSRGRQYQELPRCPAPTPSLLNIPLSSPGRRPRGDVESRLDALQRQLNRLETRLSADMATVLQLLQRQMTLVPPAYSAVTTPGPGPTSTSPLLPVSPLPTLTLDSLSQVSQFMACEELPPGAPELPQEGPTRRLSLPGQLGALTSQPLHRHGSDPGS

Sequence of C-C chemokine receptor type 8 (P51685 whole entry): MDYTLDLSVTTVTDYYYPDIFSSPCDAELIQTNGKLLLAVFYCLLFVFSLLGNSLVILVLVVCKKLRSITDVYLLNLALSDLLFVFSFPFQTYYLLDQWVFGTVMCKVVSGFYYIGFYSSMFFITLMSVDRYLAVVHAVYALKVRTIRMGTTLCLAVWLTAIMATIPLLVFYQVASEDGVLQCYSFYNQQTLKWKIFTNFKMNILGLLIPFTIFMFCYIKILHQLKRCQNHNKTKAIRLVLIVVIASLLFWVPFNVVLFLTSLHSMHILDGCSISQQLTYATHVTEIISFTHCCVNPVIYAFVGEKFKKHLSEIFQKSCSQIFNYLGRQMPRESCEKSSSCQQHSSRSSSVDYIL

IC50 [1] [nM]	SMILES	other results
794	COc1ccc2nccc(C3CN(C4CCN(Cc5cc6ccccc6s5)CC4)C(=O)O3)c2c1 (centres undefined)	–
> 50100	COc1ccc2nccc(C3CN(C4CCN(Cc5ccc(-c6ccccc6)cc5)CC4)C(=O)O3)c2c1 (centres undefined)	–
> 50100	COc1ccc2nccc(C3CN(C4CCCCN(Cc5cc6ccccc6[nH]5)C4)C(=O)O3)c2c1 (centres undefined)	–
> 50100	COc1ccc2nccc(C3CN(C4CCN(S(=O)(=O)c5ccc(Cl)c(Cl)c5)CC4)C(=O)O3)c2c1 (centres undefined)	–
1260	COc1ccc(CN2CCC(N3CC(c4ccnc5ccc(OC)cc45)OC3=O)CC2)cc1 (centres undefined)	–
> 50100	O=C1OC(c2ccc3ccccc3n2)CN1C1CCN(Cc2cc3ccccc3[nH]2)CC1 (centres undefined)	–
12600	COc1ccc2nccc(C3CN(C4CCN(Cc5ccccc5)CC4)C(=O)O3)c2c1 (centres undefined)	–
50.1	COc1ccc2nccc(C3CN(C4CCN(Cc5ccc(Br)cc5)CC4)C(=O)O3)c2c1 (centres undefined)	–
251	COc1ccc2nccc(C3CN(C4CCN(CCCc5ccccc5)CC4)C(=O)O3)c2c1 (centres undefined)	–
> 50100	O=C1OC(c2cnc3ccccc3c2)CN1C1CCN(Cc2cc3ccccc3[nH]2)CC1 (centres undefined)	–
3160	COc1ccc2nccc(C3CN(C4CCN(Cc5cc6ccccc6n5C)CC4)C(=O)O3)c2c1 (centres undefined)	–
6310	COc1ccc2nccc(C3CN(C4CCN(Cc5cccc(Cl)c5)CC4)C(=O)O3)c2c1 (centres undefined)	–
1260	COc1ccc2nccc(C3CN(C4CCN(Cc5ccc6ccccc6c5)CC4)C(=O)O3)c2c1 (centres undefined)	–
> 50100	COc1ccc2nccc(C3CN(CC4CCN(Cc5cc6ccccc6[nH]5)CC4)C(=O)O3)c2c1 (centres undefined)	–
20	COc1ccc2nccc([C@@H]3CN(C4CCN(Cc5cc6ccccc6[nH]5)CC4)C(=O)O3)c2c1	CL (Liver microsomes [2]): 7 mL/min/g; CL (Liver microsomes [3]): 7 mL/min/g; Vd [4]: 2.4 L/kg; bioavailability [5]: 18%; clearance [6]: 38 mL/min/kg; half-life [7]: 1 h; Selectivity ratio (Homo sapiens): 79; Activity [8]: inactive; Activity (Rattus norvegicus): inactive; Activity (Cavia porcellus): inactive; IC50 [9]: 1580 nM
501	CCCCCCN1CCC(N2CC(c3ccnc4ccc(OC)cc34)OC2=O)CC1 (centres undefined)	–
> 50100	COc1ccc2nccc(C3CN(C4CCN(Cc5ccccc5Cl)CC4)C(=O)O3)c2c1 (centres undefined)	–
631	COc1ccc2nccc(C3CN(C4CCN(Cc5ccc(Cl)cc5)CC4)C(=O)O3)c2c1 (centres undefined)	–

IC50 [1] [nM]	SMILES	other results
> 50100	COc1ccc2nccc(C3CN(CC4CCCN(Cc5cc6ccccc6[nH]5)C4)C(=O)O3)c2c1 (centres undefined)	–
39.8	COc1ccc2nccc(C3CN(C4CCN(Cc5ccc(C)c(C)c5)CC4)C(=O)O3)c2c1 (centres undefined)	Selectivity ratio (Homo sapiens): 158; IC50 [9]: 6310 nM
12600	COc1ccc2nccc(C3CN(C4CCN(Cc5ccc(C#N)cc5)CC4)C(=O)O3)c2c1 (centres undefined)	–
1580	COc1ccc2nccc(C3CN(CCCNCc4cc5ccccc5[nH]4)C(=O)O3)c2c1 (centres undefined)	–
25.1	COc1ccc2nccc(C3CN(C4CCN(Cc5cc6ccccc6[nH]5)CC4)C(=O)O3)c2c1 (centres undefined)	–
6310	COc1ccc2nccc(C3CN(CCCN(C)Cc4cc5ccccc5[nH]4)C(=O)O3)c2c1 (centres undefined)	–
> 50100	COc1ccc2nccc(C3CN(C4CCN(Cc5cc6ccccc6[nH]5)C4)C(=O)O3)c2c1 (centres undefined)	–
> 50100	O=C1OC(c2cccc3ccccc23)CN1C1CCN(Cc2cc3ccccc3[nH]2)CC1 (centres undefined)	–
126	COc1ccc2nccc(C3CN(C4CCN(Cc5ccc(Cl)c(Cl)c5)CC4)C(=O)O3)c2c1 (centres undefined)	–
6310	COc1ccc2nccc(C3CN(C4CCN(C(=O)c5ccc(Cl)c(Cl)c5)CC4)C(=O)O3)c2c1 (centres undefined)	–
31.6	COc1ccc2nccc(C3CN(C4CCN(Cc5cc6ccccc6[nH]5)CC4)C(=O)O3)c2n1 (centres undefined)	–
3160	COc1ccc2nccc(C3CN(C4CCN(Cc5ccc6ccccc6n5)CC4)C(=O)O3)c2c1 (centres undefined)	–
> 50100	O=C1OC(c2ccncc2)CN1C1CCN(Cc2cc3ccccc3[nH]2)CC1 (centres undefined)	–
1260	COc1ccc2nccc(C3CN(C4CCN(Cc5cc6ccccc6o5)CC4)C(=O)O3)c2c1 (centres undefined)	–
> 50100	COc1ccc2nccc(C3CN(C4CCN(Cc5c[nH]c6ccccc56)CC4)C(=O)O3)c2c1 (centres undefined)	–
7940	COc1ccc2nccc(C3CN(C4CCN(CC5CCCCC5)CC4)C(=O)O3)c2c1 (centres undefined)	–
1000	O=C1OC(c2ccnc3ccccc23)CN1C1CCN(Cc2cc3ccccc3[nH]2)CC1 (centres undefined)	–
> 50100	COc1ccc2nccc(C3CN(C4CCN(C)CC4)C(=O)O3)c2c1 (centres undefined)	–
